# What was measured:
# [1] = Solubility stated in text; format: physicochemical; details: vs 1-10 μM
# dhBMECs = test: Cytotoxicity assay (EthD1/Hoechst live-cell imaging), dhBMECs; format: cell-based, human; details: for exposure time maintaining high cell viability: phase diagrams of dhBMECs and HCNs, 98% viability
# Procedure: DhBMECs were seeded on polystyrene 96-well plate, coated with 25 μg mL^−1 fibronectin and 50 μg mL^−1 collagen IV, at 2×10^5 cells cm^−2 in BBB induction medium. On day 1, the cells were washed twice with BBB maintenance medium with gentle pipetting up-and-down to remove non-adherent cells and incubated in the medium overnight. HCN2 cells were seeded in the tissue culture-treated 96-well plate at 3×10^3 cell cm^−2 in HCN2 cell culture medium and cultured for two days at 37° C., 5% CO2, with the medium change on day 1 after the seeding. The cytotoxicity assay was performed on day 2 after seeding. Briefly, in the cytotoxicity assay, the cells were incubated with two dyes: a membrane-impermeable Ethidium homodimer-1 (EthD1, L3224, Thermo Fisher Scientific) to assess cell viability, and Hoechst 33342 nuclear stain (Cat. No. 62249, Thermo Fisher Scientific) and imaged on an epifluorescence microscope. In more detail, the cells were washed with BBB maintenance medium followed by incubation with 200 μL of 2 μg mL^−1 Hoechst 33342 and 10 μM EthD1 solution for 15-30 minutes at 37° C., 5% CO2. After the incubation, 100 μL of the solutions were replaced with Hoechst 33342 and EthD1 solutions containing melittin using a multichannel pipettor, resulting in final 0.75 μM, 5 μM, and 10 μM melittin concentrations. After the addition of treatment solutions, large 6×6 epifluorescence images were collected every ˜3.5 minutes per condition using a 20×objective and a Nikon Eclipse TiE microscope, equipped with 37° C. chamber, for 60-90 minutes. Out-of-focus portions of images were manually blacked out using ImageJ. Afterwards, the images were analyzed using a custom pipeline in image analysis software CellProfiler 3.1.8 to count Hoechst-positive objects (all cells) and EhtD1-positive objects (dead cells). The fraction of viable cells (F) was calculated using equation 2 below:
# where N(EthD1)i is the number of EthD1-positive objects at time i, N(EthD1)o is the number of EthD1-positive objects at time t=2 minutes (initial time of imaging), N(Hoechst)max is the maximum number of Hoechst-positive objects counted in an image over the imaging time-course. For dhBMECs, the experiments were repeated a total of five times with two independent iPSC differentiations. In the experiment, all media removal was done by gentle pipetting and not aspiration by vacuum. For HCN2 cells, the experiments were performed a total of three times on day 2 and day 3 after seeding.
# [2] = tested on: tissue-engineered dhBMECs microvessels; test: BBB opening in tissue-engineered BBB microvessels (500 kDa dextran leakage); format: cell-based, human
# Procedure: Three-dimensional blood-brain barrier microvessels were fabricated as previously reported (FIGS. 10A and 10B) [Linville, R. M., et al., Biomaterials, 2019. 190-191: p. 24-37] 150 μm diameter and 1 cm long channels were patterned in 7 mg mL^−1 type I collagen (Corning) using nitinol wire (Malin Co.) housed within polydimethylsiloxane (PDMS; Dow Corning). Channels were cross-linked by incubation in 20 mM genipin (Wako Biosciences) for 2 hours to increase cell adhesion. 2dhBMECs were suspended in BBB induction medium at a concentration of 5×10^6 cells mL^−1 and seeded into channels. Microvessels were perfused using BBB induction medium for 24 hours and then switched to BBB maintenance medium. During cell seeding and the first day of perfusion, 10 μM ROCK inhibitor Y27632 (ATCC) was supplemented to increase adhesion. An average shear stress of ˜2 dyn cm^−2 was maintained with a reservoir height difference (Δh) of 3 cm, corresponding to a volumetric flow rate of ˜250 μL h^−1 (FIG. 11D). This shear stress was estimated from the Poiseuille equation: τ=μQ)/2πd3 where μ is the media dynamic viscosity, Q is the volumetric flow rate, and d is the microvessel diameter.
# Live-cell imaging was conducted to study dynamic changes in in vitro BBB permeability and microvessel structure. Microvessels were imaged using a 10×objective equipped on an inverted microscope (Nikon Eclipse TiE) maintained at 37° C. and 5% CO2 (FIG. S2C). Epifluorescence illumination was provided by an X-Cite 120LEDBoost (Excelitas Technologies). Phase contrast and fluorescence images were acquired every two minutes with the focal plane set to the microvessel midplane. The entire image collected consists of ten adjacent imaging frames. […] A dextran solute panel comprised of 200 μM Cascade Blue-conjugated 3 kDa dextran (Cat. No. D7132. Thermo Fisher Scientific), 16 μM Alexa Fluor647-conjugated 10 kDa dextran (Cat. No. D22914, Thermo Fisher Scientific), and 1.2 μM fluorescein-conjugated 500 kDa dextran (Cat. No. D7136, Thermo Fisher Scientific) was prepared in BBB maintenance medium. Fluorophores were independently excited and the respective emissions were collected using: Nikon UV-2E/C for 3 kDa dextran (50 ms exposure), Chroma 41008 for 10 kDa dextran (20 ms exposure), and Nikon B-2E/C for 500 kDa dextran (50 ms exposure).
# Image processing was performed using ImageJ (NIH) to quantify BBB opening (FIGS. 11A-11D). First, images were cropped to a standard size of 6 mm×0.6 mm. To determine the spatial heterogeneity of BBB permeability, microvessels were sectioned into 10 regions of interest (ROIs), each a 0.6 mm×0.6 mm square (FIG. 11A). For each ROI, the integrated pixel density was plotted over time (FIG. 11A). The permeability (cm s^−1) was calculated using P=(r/2)(1/ΔI)(dI/dt), where r is the vessel radius, ΔI is the increase in fluorescence intensity upon perfusion of the fluorophore, and (dI/dt) is the rate of increase in fluorescence intensity as solute exits into the gel. […] To visually display permeability dynamics, heatmaps were generated from 90 instantaneous permeability values across the 10 ROIs (x-axis) and nine 10-minute periods (y-axis). […] 28(1): p. 41-51 in ImageJ (FIG. 11B). Under baseline conditions, thresholding results in the lumen designated as white (1) and extracellular matrix (ECM) as black (0). […] From binarized images, individual focal leaks were manually counted over time. Leaks emerging from the sides of the image frame were not counted. To quantify the duration of a BBB opening effect, we identified the time at which the last focal leak appeared and termed the focal leak reversibility time constant (τfocal leaks).
# [3] = Estimated systemic exposure after intra-arterial injection; format: in vivo, mouse
compound,measurement,setting,value
CC[C@H](C)[C@H](NC(=O)CN)C(=O)NCC(=O)N[C@@H](C)C(=O)N[C@H](C(=O)N[C@@H](CC(C)C)C(=O)N[C@@H](CCCCN)C(=O)N[C@H](C(=O)N[C@@H](CC(C)C)C(=O)N[C@H](C(=O)N[C@H](C(=O)NCC(=O)N[C@@H](CC(C)C)C(=O)N1CCC[C@H]1C(=O)N[C@@H](C)C(=O)N[C@@H](CC(C)C)C(=O)N[C@H](C(=O)N[C@@H](CO)C(=O)N[C@@H](Cc1c[nH]c2ccccc12)C(=O)N[C@H](C(=O)N[C@@H](CCCCN)C(=O)N[C@@H](CCCNC(=N)N)C(=O)N[C@@H](CCCCN)C(=O)N[C@@H](CCCNC(=N)N)C(=O)N[C@@H](CCC(N)=O)C(=O)N[C@@H](CCC(N)=O)C(N)=O)[C@@H](C)CC)[C@@H](C)CC)[C@@H](C)O)[C@@H](C)O)C(C)C)C(C)C [melittin],solubility relative to the concentrations for membrane activity,[1],more than 30 fold
same,exposure time maintaining high cell viability,dhBMECs; 0.75 μM melittin,≥ 20 min
same,time for which viability is largely unaffected,dhBMECs; 5 μM melittin,about 20 minutes
same,time at which the viability reached 50% (τ1/2),"dhBMECs; 5 μM melittin, continuous exposure",~40 min
same,exposure time maintaining high cell viability,dhBMECs; 10 μM melittin,≤ 10 min
same,decrease of viability,dhBMECs; dose of 100 μM·minute,< 2%
same,increase in delivery of 500 kDa dextran across the blood-brain barrier in vitro,[2],≤ 25 fold
same,500 kDa dextran permeability,"[2]; 5 μM melittin for 90 minutes, continuous",high 500 kDa dextran permeability
same,"average permeability of 500 kDa dextran, fold higher than baseline",[2]; 50 μM·minute dose,~25 fold
same,focal leak density relative to mannitol,"[2]; above threshold doses, retrospective comparison",3 fold
same,focal leaks 24 hours after melittin exposure,"[2]; all doses, 3-100 μM·minute, 500 kDa dextran",focal leaks were not observed
same,barrier function after 24 hours,[2]; high doses,barrier function was regained 24 hours later
same,BBBO,[2]; high doses (10-minute 10 μM),"induced sustained BBBO, but did not recover during the 90 minutes of imaging"
same,BBBO,[2]; intermediate doses (5-minute 5 μM),induced BBBO and resulted in recovery during the 90 minute imaging period
same,character of focal leaks,[2]; intermediate doses (20-50 μM·minute),transient
same,BBBO,[2]; low doses (2-minute 1.5 μM),did not induce BBBO
same,"systemic dose, fold lower than the LD50","[3]; 3 μM·min melittin, mouse weight of 20 g assumed",~50 fold
same,melittin concentration after dilution in the bloodstream,"[3]; 3 μM·min, 150 μL injection diluted into 1.2 mL of whole blood (assumed)",0.33 µM
same,reduction of melittin concentration upon exiting the brain,[3]; dilution in the bloodstream assumed,~10 fold

# Source: patent US20240009269A1 (priority 2020, published 2024)
